Where two headings read alike, the source gives them in different places.
Assays:
[1] = target: T1, human recombinant bradykinin B1 receptor (Homo sapiens, UniProt P46663); test: Human recombinant bradykinin B1 receptor binding
T1 construct: purchased Euroscreen ES-091; host or cells: CHO cells
T1 sequence (P46663 1-353): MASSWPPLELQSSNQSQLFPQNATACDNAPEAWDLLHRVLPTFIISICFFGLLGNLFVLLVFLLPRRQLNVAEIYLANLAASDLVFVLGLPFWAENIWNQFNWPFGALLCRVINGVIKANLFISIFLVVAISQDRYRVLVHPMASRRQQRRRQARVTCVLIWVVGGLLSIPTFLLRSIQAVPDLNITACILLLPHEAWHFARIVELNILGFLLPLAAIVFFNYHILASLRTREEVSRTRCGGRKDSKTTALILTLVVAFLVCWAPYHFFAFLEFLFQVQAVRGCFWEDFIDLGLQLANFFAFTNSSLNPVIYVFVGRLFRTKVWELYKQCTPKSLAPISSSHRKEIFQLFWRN
Description: Receptor Binding Assays 1. Human Recombinant Bradykinin B1 Receptor Binding
Binding assays were carried out on human recombinant bradykinin) receptors (expressed in CHO cells) according to the Euroscreen Technical Data Sheet (Cat.No.:ES-091). 20 μg protein/tube was incubated with [3,4-prolyl-3,4-^3H(N)]-[Des-Arg^10] Kallidin as radioligand. Non specific binding was determined in the presence of 10 μM Lys-des-Arg^9-Bradykinin. The final incubation volume was 250 μl. Samples were incubated for 15 min. at 25° C. then were rapidly vacuum filtered through GF/B filters presoaked for at least 1 h in 0.5% PEI. Radioactivity was determined by liquid scintillation spectroscopy.

[2] = target: T2, recombinant human B1 receptors (Homo sapiens, UniProt P46663); test: Functional assay: antagonist potency by cytosolic calcium measurement in CHO-B1 cells (agonist LysDABK); type: cell-based
T2 construct: host or cells: CHO (CHO-B1)
T2 sequence (P46663 1-353): T1 sequence (P46663 1-353)
Description: Assessment of Antagonist Potency at B1 and B2 Receptors In Vitro by Measurement of Cytosolic Calcium Ion Concentration with a Plate Reader Fluorimeter in Cells Expressing Recombinant Human B1 or B2 Receptors
Chinese hamster ovary (CHO) cells stably expressing recombinant human B1 (CHO-B1, Euroscreen) or B2 (CHO-B2, Perkin-Elmer) receptors were cultured in Dulbecco's Modified Eagle's Medium (DMEM) containing 10% Fetal Calf Serum (FCS), 100 U/ml penicillin, 0.1 mg/ml streptomycin, 0.25 μg/ml amphotericin B, 1% Minimum Essential Medium Eagle (MEM), non essential amino acid solution, 600 μg/ml G418, 1% pyruvate (for the B2 cell line). Cells were kept at 37° C. in a humidified incubator in an atmosphere of 5% CO2/95% air and were passaged 1:4 three times a week. Cells were plated at 1.5-2.5×10^4 cell/well on standard 96-well microplates, measurements of cytosolic calcium ion concentration ([Ca^2+]i) were carried out 1-2 days after cell plating.
Measurements of [Ca^2+]i were carried out on CHO-B1 and CHO-B2 cells stably expressing human B1 and B2 receptors, respectively. Cells were grown in standard 96-well microplates and before the measurement were loaded with a fluorescent Ca^2+-sensitive dye, fluo-4/AM (2 μM): after removing the culture medium the dye was added to the cells (dissolved in assay buffer: 145 mM NaCl, 5 mM KCl, 2 mM MgCl2, 2 mM CaCl2, 10 mM HEPES, 20 mM D-glucose, 2 mM probenecid, 100 μl/well) and cells were incubated at 37° C. in a humidified incubator in an atmosphere of 5% CO2/95% air for 40-120 min. To stop dye loading cells were washed twice with assay buffer. After washing, various concentrations of the test compounds (diluted in extracellular medium from a DMSO stock solution, final DMSO concentration was <0.1%) or buffer were added to each well depending on the experimental setup. After incubation at 37° C. for 20-25 min. baseline and agonist-evoked changes of [Ca^2+]i were measured column by column with a plate reader fluorimeter (Fluoroskan Ascent, Labsystems). Excitation and detection of emission was carried out from the bottom of the plate. Filters used for Fluo-4: excitation filter—485 nm, emission filter—538 nm. The whole measurement process was performed at 37° C. and was controlled by custom software. Inhibitory potency of the test compounds was assessed by measuring the reduction in the agonist-evoked [Ca^2+]i-elevation in the presence of different concentrations of the compounds. The agonists were LysDABK for CHO-B1, and bradykinin for CHO-B2 cells. Agonists were applied at an EC80 concentration, the EC80-values were derived from daily determined dose-response curves. Fluorescence data were expressed as ΔF/F (fluorescence change normalized to baseline). All treatments on a single plate were measured in multiple wells. Data from all wells with the same treatment were averaged and the average values were used for analysis. Inhibitory potency of a compound at a single concentration point was expressed as percent inhibition of the control agonist response. Sigmoidal concentration-inhibition curves were fitted to the data (derived from at least three independent experiments) and IC50-values were determined as the concentration that produces half of the maximal inhibition caused by the compound.

[3] = CHO cell membranes, [3H]-[Des-Arg10] Kallidin radioligand, read-out: B1 binding
[4] = CHO-B1 cells, LysDABK at EC80, fluo-4 [Ca2+]i, read-out: B1 func.

| Structure (SMILES) | Ki [1, 3] [nM] | IC50 [2, 4] [nM] | Ki ([1]; reference compounds, binding test, read-out: Ki) [nM] | IC50 ([2]; reference compounds, functional test, read-out: IC50) [nM] |
| --- | --- | --- | --- | --- |
| O=C(NCC(=O)N1CCCN(CCCN2CCOCC2)CC1)c1ccc(S(=O)(=O)Nc2ccccc2Oc2ccc(Cl)cc2Cl)cc1 [Example 1.8, 4-[2-(2,4-Dichloro-phenoxy)-phenylsulfamoyl]-N-{2-[4-(3-morpholin-4-yl-propyl)-[1,4]diazepan-1-yl]-2-oxo-ethyl}-benzamide] | < 20 | < 20 | – | – |
| O=C(NCC(=O)N1CCC(CO)CC1)c1ccc(S(=O)(=O)Nc2ccccc2C(=O)c2ccccc2)cc1 [Example 3.9, 4-(2-Benzoyl-phenylsulfamoyl)-N-[2-(4-hydroxymethyl-piperidin-1-yl)-2-oxo-ethyl]-benzamide] | < 20 | < 20 | – | – |
| O=C(NCC(=O)N1CCN(CCN2CCCCC2)CC1)c1ccc(S(=O)(=O)Nc2ccccc2Oc2ccc(Cl)cc2Cl)cc1 [Example 1.13, 4-[2-(2,4-Dichloro-phenoxy)-phenylsulfamoyl]-N-{2-oxo-2-[4-(2-piperidin-1-yl-ethyl)-piperazin-1-yl]-ethyl}-benzamide] | < 20 | < 20 | – | – |
| O=C(NCC(=O)N1CCC(O)CC1)c1ccc(S(=O)(=O)Nc2ccccc2Oc2ccc(Cl)cc2Cl)cc1 [Example 1.22, 4-[2-(2,4-Dichloro-phenoxy)-phenylsulfamoyl]-N-[2-(4-hydroxy-piperidin-1-yl)-2-oxo-ethyl]-benzamide] | < 20 | < 20 | – | – |
| CN(C)CCCN1CCN(C(=O)CNC(=O)c2ccc(S(=O)(=O)Nc3ccccc3Oc3ccccc3)cc2)CC1 [Example 2.6, N-{2-[4-(3-Dimethylamino-propyl)-piperazin-1-yl]-2-oxo-ethyl}-4-(2-phenoxy-phenylsulfamoyl)-benzamide] | < 20 | < 20 | – | – |
| O=C(NCC(=O)N1CCC(N2CCCC2)CC1)c1ccc(S(=O)(=O)Nc2ccccc2Oc2ccc(Cl)cc2Cl)cc1 [Example 1.21, 4-[2-(2,4-Dichloro-phenoxy)-phenylsulfamoyl]-N-[2-oxo-2-(4-pyrrolidin-1-yl-piperidin-1-yl)-ethyl]-benzamide] | < 20 | < 20 | – | – |
| CC1CCN(C(=O)CNC(=O)c2ccc(S(=O)(=O)Nc3ccccc3C(=O)c3ccccc3)cc2)CC1 [Example 3.7, 4-(2-Benzoyl-phenylsulfamoyl)-N-[2-(4-methyl-piperidin-1-yl)-2-oxo-ethyl]-benzamide] | < 20 | < 20 | – | – |
| CN1CCN(C(=O)C2CCN(S(=O)(=O)c3ccc(NCC(c4ccccc4)c4ccccc4)c(C(=O)N4CCOCC4)c3)CC2)CC1 [NVP-SAA164, 4-{2-[(2,2-diphenyl-ethyl)-amino]-5-{-4-[4-[(4-methyl-1-piperazinyl)-carbonyl]-1-piperidinyl]-sulfonyl}-benzoyl}-morfoline, reference compound] | – | – | 8 | 33 |
| O=C(NCC(=O)N1CCN(CCN2CCCC2)CC1)c1ccc(S(=O)(=O)Nc2ccccc2C(=O)c2ccccc2)cc1 [Example 3.1, 4-(2-Benzoyl-phenylsulfamoyl)-N-{2-oxo-2-[4-(2-pyrrolidin-1-yl-ethyl)-piperazin-1-yl]-ethyl}-benzamide] | < 20 | < 20 | – | – |
| O=C(NCC(=O)N1CCNCC1)c1ccc(S(=O)(=O)Nc2ccccc2Oc2ccccc2)cc1 [Example 11.2, N-(2-Oxo-2-piperazin-1-yl-ethyl)-4-(2-phenoxy-phenylsulfamoyl)-benzamide hyrochloride] | 20 to 100 | < 20 | – | – |
| O=C(NCC(=O)N1CCC(CCN2CCCC2)CC1)c1ccc(S(=O)(=O)Nc2ccccc2Oc2ccc(Cl)cc2Cl)cc1 [Example 1.6, 4-[2-(2,4-Dichloro-phenoxy)-phenylsulfamoyl]-N-{2-oxo-2-[4-(2-pyrrolidin-1-yl-ethyl)-piperidin-1-yl]-ethyl}-benzamide] | < 20 | < 20 | – | – |
| N#CC1CCN(C(=O)CNC(=O)c2ccc(S(=O)(=O)Nc3ccccc3C(=O)c3ccccc3)cc2)CC1 [Example 3.5, 4-(2-Benzoyl-phenylsulfamoyl)-N-[2-(4-cyano-piperidin-1-yl)-2-oxo-ethyl]-benzamide] | < 20 | < 20 | – | – |
| NC(=O)C1CCN(C(=O)CNC(=O)c2ccc(S(=O)(=O)Nc3ccccc3Oc3ccccc3)cc2)CC1 [Example 2.15, 1-{2-[4-(2-Phenoxy-phenylsulfamoyl)-benzoylamino]-acetyl}-piperidine-4-carboxylic acid amide] | 20 to 100 | 20 to 100 | – | – |
| O=C(NCC(=O)N1CCN(CCCN2CCCC2)CC1)c1ccc(S(=O)(=O)Nc2ccccc2Oc2ccc(Cl)cc2Cl)cc1 [Example 1.4, 4-[2-(2,4-Dichloro-phenoxy)-phenylsulfamoyl]-N-{2-oxo-2-[4-(3-pyrrolidin-1-yl-propyl)-piperazin-1-yl]-ethyl}-benzamide] | < 20 | < 20 | – | – |
| O=C(NCC(=O)N1CCN(CCCN2CCCC2)CC1)c1ccc(S(=O)(=O)Nc2ccccc2Oc2ccccc2)cc1 [Example 2.5, N-{2-Oxo-2-[4-(3-pyrrolidin-1-yl-propyl)-piperazin-1-yl]-ethyl}-4-(2-phenoxy-phenylsulfamoyl)-benzamide] | < 20 | < 20 | – | – |
| O=C(NCC(=O)N1CCC(O)CC1)c1ccc(S(=O)(=O)Nc2ccccc2Oc2ccccc2)cc1 [Example 2.10, N-[2-(4-Hydroxy-piperidin-1-yl)-2-oxo-ethyl]-4-(2-phenoxy-phenylsulfamoyl)-benzamide] | 20 to 100 | 20 to 100 | – | – |
| CCN(CC)CCN1CCN(C(=O)CNC(=O)c2ccc(S(=O)(=O)Nc3ccccc3Oc3ccccc3)cc2)CC1 [Example 2.4, N-{2-[4-(2-Diethylamino-ethyl)-piperazin-1-yl]-2-oxo-ethyl}-4-(2-phenoxy-phenylsulfamoyl)-benzamide] | < 20 | < 20 | – | – |
| O=C(NCC(=O)N1CCN(CCN2CCCC2)CC1)c1ccc(S(=O)(=O)Nc2ccccc2Oc2ccccc2)cc1 [Example 2.2, N-{2-Oxo-2-[4-(2-pyrrolidin-1-yl-ethyl)-piperazin-1-yl]-ethyl}-4-(2-phenoxy-phenylsulfamoyl)-benzamide] | < 20 | < 20 | – | – |
| NC(=O)C1CCN(C(=O)CNC(=O)c2ccc(S(=O)(=O)Nc3ccccc3C(=O)c3ccccc3)cc2)CC1 [Example 3.17, 1-{2-[4-(2-Benzoyl-phenylsulfamoyl)-benzoylamino]-acetyl}-piperidine-4-carboxylic acid amide] | < 20 | < 20 | – | – |
| CN1CCCC(CN2CCN(C(=O)CNC(=O)c3ccc(S(=O)(=O)Nc4ccccc4C(=O)c4ccccc4)cc3)CC2)C1 (stereo not shown) [Example 3.8, 4-(2-Benzoyl-phenylsulfamoyl)-N-{2-[4-(1-methyl-piperidin-3-ylmethyl)-piperazin-1-yl]-2-oxo-ethyl}-benzamide] | < 20 | < 20 | – | – |

Reference: patent US8481527B2, “Benzamide derivatives as bradykinin antagonists” (Richter Gedeon Nyrt., priority 2006, dated 2013)
